Where two headings read alike, the source gives them in different places.
Key:
Format in all cases: biochemical
[1] = target: T1, α-synuclein seeded by E. coli CsgA (Homo sapiens, UniProt P37840); experiment: In vitro Thioflavin T assay of CsgA-seeded α-synuclein aggregation
T1 construct: made in house; host or cells: E. coli NEB 3016 slyD::kan (CsgA, pET11d); E. coli (α-synuclein)
Protocol: In Vitro Thioflavin T Assay to Determine the Effects of Compounds on CsgA-Seeded α-Synuclein Aggregation.
To induce over-expression of CsgA, 0.5 mM IPTG was added to cultures with an optical density at 600 nm (OD600) of 0.8-1, and induced cells were cultured at 37° C. for 1 hour prior to harvest via centrifugation. […] Buffers with imidazole were freshly prepared prior to the protein purification. Purified CsgA was passed through a 30 kDa molecular weight cut-off filter and through a desalting column. All steps of the CsgA purification in the absence of guanidine hydrochloride were conducted in rapid succession with as little delay as possible. […] The ammonium sulfate pellet was washed with an equal volume of 100 mM ammonium acetate in ethanol, pelleted via centrifugation, washed twice with ethanol, dried overnight, resuspended in 10 mM Tris pH 7.4, and passed through a 50 kDa cut-off column. The assay was conducted in 96-well black microplates with a single glass 2 mm bead per well, 40 μM ThioflavinT, 1% DMSO, 2 μM CsgA, 50 μM α-synuclein, 100 mM sodium chloride, 9.3 mM potassium phosphate pH 7.3, and compounds at 50 μM. […] The effect of compounds on CsgA-seeded α-synuclein aggregation in the assay was determined with data from 40 hours, following the plateau of the fluorescent signal in the untreated (no compound) control wells containing CsgA and α-synuclein. Fluorescence values for each compound with CsgA and α-synuclein were first adjusted by subtracting the average fluorescence of the compound in the absence of CsgA and α-synuclein.

human α-synuclein = target: T2, human α-synuclein (Homo sapiens, UniProt P37840); experiment: In vitro Thioflavin T assay of α-synuclein aggregation; conditions: for inhibition at 1 µM: compounds at 1 μM
T2 construct: made in house; host or cells: E. coli
Protocol: In Vitro Thioflavin T Assay to Determine the Effects of Compounds on α-Synuclein Aggregation.
The ammonium sulfate pellet was washed with an equal volume of 100 mM ammonium acetate in ethanol, pelleted via centrifugation, washed twice with ethanol, dried overnight, resuspended in 10 mM Tris pH 7.4, and passed through a 50 kDa cut-off column. The assay was conducted in 96-well black microplates with a single 2 mm bead in each well, 40 μM ThioflavinT, 1% DMSO, 50 μM α-synuclein, 100 mM sodium chloride, 9.3 mM potassium phosphate pH 7.3, 4.6 mM Tris pH 7.4 (added as the solvent for α-synuclein or independently for controls lacking α-synuclein), and compounds at 1 μM or 50 μM. […] Readings were performed hourly for up to 73 hours. The effect of compounds on α-synuclein aggregation in the assay was determined with data from 40 hours, following the plateau of the fluorescent signal in the untreated (no compound) control wells containing α-synuclein. Fluorescence values for each compound with α-synuclein were first adjusted by subtracting the average fluorescence of the compound in the absence of α-synuclein.

E. coli CsgA = target: T3, E. coli CsgA (Escherichia coli, UniProt P28307); experiment: In vitro ThioflavinT assay of CsgA aggregation; conditions: for inhibition at 20 µM / Inhibition of Aggregation CsgA (compound activity range): CsgA at 20 μM, ThT fluorescence at 18 hours; for Inhibition of Aggregation CsgA (compound activity range) / Effect on CsgA aggregation (in words): compounds at 20 μM; for Inhibition of Aggregation CsgA (compound activity range): 20 µM
T3 construct: made in house; host or cells: E. coli NEB 3016 slyD::kan, pET11d
T3 sequence (P28307 23-151): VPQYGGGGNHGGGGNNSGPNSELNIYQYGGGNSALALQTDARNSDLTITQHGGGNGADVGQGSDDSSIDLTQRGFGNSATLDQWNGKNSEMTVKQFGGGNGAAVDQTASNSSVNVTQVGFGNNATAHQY
Protocol: In Vitro ThioflavinT Assay to Determine Effects of Compounds on CsgA Aggregation.
To assess the effects of compounds on aggregation of E. coli CsgA, a cell-free assay was performed using purified CsgA and Thioflavin T. In the assay, histidine-tagged CsgA was over-expressed in E. coli NEB 3016 slyD::kan cells harboring a pET11d vector containing csgA with the sequence for 6 histidine residues added to the C-terminus and without the Sec signal (amino acid 1-22) sequence. To induce over-expression of CsgA, 0.5 mM isopropyl β-D-1-thiogalactopyranoside (“IPTG”) was added to cultures with an optical density at 600 nm (OD600) of 0.8-1, and induced cells were cultured at 37° C. for 1 hour prior to harvest via centrifugation. Cells were lysed under denaturing conditions with 8 M guanidine hydrochloride in 50 mM potassium phosphate buffer pH 7.3, and CsgA was purified via immobilized-metal affinity chromatography by batch purification with Nickel-NTA agarose and a combination of low pressure and gravity flow through a disposable polypropylene column, including washes under low pressure applied manually via application of a syringe plunger to the column with 50 mM potassium phosphate buffer pH 7.3 followed by 12.5 mM imidazole in 50 mM potassium phosphate buffer pH 7.3, and elution by gravity flow with 125 mM imidazole in 50 mM potassium phosphate buffer pH 7.3. Buffers with imidazole were freshly prepared prior to the protein purification. Purified CsgA was passed through a 30 kDa molecular weight cut-off filter and passed through a desalting column. All steps of the CsgA purification in the absence of guanidine hydrochloride were conducted in rapid succession with as little delay as possible. The assay was conducted in 96-well black microplates with 40 μM ThioflavinT, 1% DMSO, CsgA at 20 μM, and compounds at 20 μM. Plates were incubated at 25° C. in a Tecan Nano F200 plate reader with excitation at 438 nm using a 439 nm filter with a bandwidth of 8 nm, and emission at 495 nm with a 490 nm filter with a bandwidth of 10 nm. During the assay, plates were shaken initially for 5 seconds and subsequently for 3 seconds prior to fluorescent readings. Readings were performed every 20 minutes for up to 24 hours. The effect of compounds on CsgA aggregation in the assay was determined with data from 18 hours, following the plateau of the fluorescent signal in the untreated (no compound) control wells containing CsgA. Fluorescence values for each compound with CsgA were first adjusted by subtracting the average fluorescence of the compound in the absence of CsgA. These adjusted values were normalized by dividing them by the average fluorescence in the no-compound (i.e., untreated) control wells containing CsgA […], and the average normalized fluorescence with the compound was expressed as a percentage of the average fluorescence observed in untreated controls.

[2] = compounds at 50 μM, 2 μM CsgA, 50 μM α-synuclein, ThT fluorescence at 40 hours, read-out: Inhibition of Aggregation CsgA-seeded αSyn
[3] = compounds at 50 μM, 50 μM α-synuclein, ThT fluorescence at 40 hours, read-out: Inhibition of Aggregation αSyn
[4] = compounds at 50 μM, 50 μM α-synuclein, ThT fluorescence at 40 hours, read-out: Inhibition of Aggregation αSyn (compound activity range)
[5] = read-out: Inhibition of Aggregation CsgA (compound activity range), compounds at 20 μM
[6] = read-out: Inhibition of Aggregation CsgA, compounds at 20 μM
[7] = 50 μM α-synuclein, ThT fluorescence at 40 hours, read-out: Inhibition of Aggregation αSyn
[8] = 50 μM α-synuclein, ThT fluorescence at 40 hours, read-out: Inhibition of Aggregation αSyn (compound activity range)
[9] = compounds at 50 μM, 2 μM CsgA, 50 μM α-synuclein, ThT fluorescence at 40 hours, read-out: Inhibition of Aggregation CsgA-seeded αSyn (compound activity range)
[10] = read-out: Inhibition of Aggregation αSyn
[11] = read-out: Inhibition of Aggregation αSyn (compound activity range)
[12] = read-out: Inhibition of Aggregation CsgA-seeded αSyn

SMILES	inhibition at 50 µM [1, 2]	inhibition at 50 µM (human α-synuclein; [3])	inhibition at 50 µM (human α-synuclein; [4])	inhibition at 20 µM (E. coli CsgA; [5])	inhibition at 20 µM (E. coli CsgA; [6])	inhibition at 1 µM (human α-synuclein; [7])	inhibition at 1 µM (human α-synuclein; [8])	Effect on CsgA aggregation (in words) (E. coli CsgA)	other results
CC(Cc1ccc(O)c(O)c1)C(C)Cc1ccc(O)c(O)c1 (stereo not drawn) [NDGA, 4,4′-(2,3-dimethylbutane-1,4-diyl)dibenzene-1,2-diol]	39%	54%	30 to 60%	10 to 30%	23%				
O=C(O)c1cc(O)c(O)c(O)c1 [gallic acid, 3,4,5-trihydroxybenzoic acid]	63%	99%	> 60%	> 60%	82%				Inhibition of Aggregation CsgA (compound activity range) (E. coli CsgA): (++) to (+++)
Oc1ccc(/C=C/c2cc(O)cc(O)c2)cc1 [resveratrol, (E)-5-(4-hydroxystyryl)benzene-1,3-diol]				> 60%	62%	86%	> 60%		Inhibition of Aggregation CsgA (compound activity range) (E. coli CsgA): (+++) to (++)
C=CCc1ccc(OC)c(OC)c1 [4-allyl-1,2-dimethoxy-benzene, 4-allyl-1,2-dimethoxybenzene]	36%			< -10%	-18%			without notable inhibition	Effect on CsgA-seeded α-synuclein aggregation (in words) ([1]; compounds at 50 μM): demonstrated inhibition; inhibition at 50 µM [1, 9]: 30 to 60%; Effect on α-synuclein aggregation (in words) (human α-synuclein; compounds at 50 μM): without notable inhibition; inhibition at 50 µM (human α-synuclein; [10]): 5%; inhibition at 50 µM (human α-synuclein; [11]): -10 to 10%
CCCCCCCCCCCCOC(=O)c1cc(O)c(O)c(O)c1 [lauryl gallate, dodecyl 3,4,5-trihydroxybenzoate]	24%	33%	30 to 60%	-10 to 10%	1%			did not appear to inhibit CsgA aggregation	Inhibition of Aggregation CsgA-seeded αSyn (compound activity range) ([1]; compounds at 50 μM, 2 μM CsgA, 50 μM α-synuclein, ThT fluorescence at 40 hours): +%; inhibition at 50 µM [1, 9]: 10 to 30%
CCc1ccc(O)c(OC)c1 [4-ethyl guaiacol, 4-ethyl-2-methoxyphenol]		-2%	-10 to 10%		-82%			relatively strong enhancement of CsgA aggregation	inhibition at 50 µM [1, 12]: -10%; inhibition at 50 µM ([1]; read-out: Inhibition of Aggregation CsgA-seeded αSyn (compound activity range)): 30 to 60%
O=c1c(O)c(-c2ccc(O)cc2O)oc2cc(O)cc(O)c12 [morin, 2-(2,4-dihydroxyphenyl)-3,5,7-trihydroxychromen-4-one]	70%	88%	> 60%	> 60%	69%				
O=c1cc(-c2ccc(O)cc2)oc2cc(O)cc(O)c12 [apigenin, 5,7-dihydroxy-2-(4-hydroxyphenyl)-4H-1-benzopyran-4-one]						56%	30 to 60%		
O=c1c(O)c(-c2ccc(O)c(O)c2)oc2cc(O)cc(O)c12 [quercetin, 2-(3,4-dihydroxyphenyl)-3,5,7-trihydroxychromen-4-one]				30 to 60%	33%	99%	> 60%		
Cc1ccc(C(C)C)c(O)c1 [thymol, 5-methyl-2-(propan-2-yl)phenol]	9%			-10 to 10%	-4%			little to no effect	Effect on CsgA-seeded α-synuclein aggregation (in words) ([1]; compounds at 50 μM): little to no effect; inhibition at 50 µM [1, 9]: -10 to 10%; inhibition at 50 µM (human α-synuclein; [10]): -21%; inhibition at 50 µM (human α-synuclein; [11]): < -10%
COc1cc(/C=C/C(=O)/C=C(O)/C=C/c2ccc(O)c(OC)c2)ccc1O [curcumin, (1E,6E)-1,7-Bis(4-hydroxy-3-methoxyphenyl)hepta-1,6-diene-3,5-dione]	86%								inhibition at 50 µM (human α-synuclein; [10]): 89%; inhibition at 50 µM (human α-synuclein; [11]): > 60%
Brc1cccc(-c2cc(-c3ccc4c(c3)OCO4)n[nH]2)c1 [Anle 138b, reference compound]				-10 to 10%	9%			relatively little to no effect	
C/C=C/c1ccc(O)c(OC)c1 [isoeugenol, 2-methoxy-4-(prop-1-en-1-yl)phenol]	35%	9%	-10 to 10%	-10 to 10%	-4%			without notable inhibition	Effect on CsgA-seeded α-synuclein aggregation (in words) ([1]; compounds at 50 μM): demonstrated inhibition; inhibition at 50 µM [1, 9]: 30 to 60%; Effect on α-synuclein aggregation (in words) (human α-synuclein; compounds at 50 μM): without notable inhibition
O=c1c(-c2ccc(O)cc2)coc2cc(O)cc(O)c12 [genistein, 5,7-dihydroxy-3-(4-hydroxyphenyl)chromen-4-one]						40%	30 to 60%		
Cc1ccc(C(C)C)cc1O [carvacrol, 2-methyl-5-(propan-2-yl)phenol]					-20%				inhibition at 50 µM [1, 12]: -2%; inhibition at 50 µM (human α-synuclein; [10]): 2%; inhibition at 50 µM (human α-synuclein; [11]): -10 to 10%; Inhibition of Aggregation CsgA (compound activity range) (E. coli CsgA): − ((−) is between −10% to 10% inhibition)
O=C(/C=C/c1ccc(O)c(O)c1)O[C@H](Cc1ccc(O)c(O)c1)C(=O)O [rosmarinic acid]				30 to 60%	48%	99%	> 60%		
